According to patent publication US20240317792A1, “CYCLIC DINUCLEOTIDE METAL COMPOUND, AND PREPARATION AND APPLICATION THEREOF” (HANGZHOU XINGAO BIOTECHNOLOGY CO., LTD., priority 2022, published 2024):

How the values were obtained:
IRI mice (male SD mice) = test: Cerebral ischemia-reperfusion injury (IRI) model, TTC dyeing; assay type: in vivo; conditions: 2 h ischemia, 24 h reperfusion; caudal vein injection 5 mg/kg (Edaravone 6 mg/kg) after 30 min ischemia
Protocol: Experimental animals: healthy male mice, weighing 280-300 grams, purchased from Shanghai SLAC Laboratory Animal Co. Ltd, with quality certificate No. (SCXK (Shanghai) 2007-0005), and kept in clean animal houses.
Establishment of a mouse cerebral ischemia model of mice and experimental method: 280-300 grams of male […] mice were selected for experiments. The male SD mice were subjected to fasting without water deprivation for 12 h before operation followed by weighing, numbering and random grouping. The male SD mice were anesthetized by intraperitoneal injection of 10 wt. % chloral hydrate at a dosage of 0.3 mL/100 g. After the male SD mice had no pain reflexes, they were subjected to neck skin preparation followed by being fixed on a dissecting table in supine position. After neck skins were disinfected with sterilized cotton balls, about 1 cm of the neck skins were cut in mid-cervical to expose subcutaneous tissues, and subcutaneous fat and the fascia were bluntly plucked with curved tweezers to expose neck muscle groups. The common carotid arteries and their upwardly internal and external carotid branches were visualized by opening the digastric muscle. The external, internal, and common carotid arteries were carefully dissected, and a thin wire was threaded under each of the three arteries, and homemade plastic spacers were placed under the common carotid arteries. The external carotid arteries and proximal ends of the common carotid arteries were ligated. After the internal common carotid arteries were clamped by arterial clips, the common carotid arteries were stuck into with homemade curved hooks followed by picking up and leading in monofilaments. The spacers were removed, and the monofilaments were gently pushed into the internal common carotid arteries and craniums. […] At this time, blood supplies of the middle cerebral arteries from the anterior cerebral arteries were blocked. Thin wires under the internal carotid arteries were ligated to secure the monofilaments to prevent the monofilaments from retreating. Excess thin wires were cut, penicillin was applied to wounds to prevent infection. The male SD mice were sutured and placed under a warm lamp to keep warm. Timing was performed when blood flows of the middle cerebral arteries were blocked by the monofilaments. After 2 hours, the monofilaments were gently pulled out and the black marks were seen, then reperfusion can be achieved.
Triphenyl tetrazolium chloride (TTC) dyeing: After being injured by 2 h cerebral ischemia and 24 h reperfusion, the male SD mice were anesthetized with 0.3 mL/100 g dosage of 10 wt. % of chloral hydrate by intraperitoneal injection and subjected to abdominal aorta bleeding to reduce influence of blood in brains. Then whole heads of the male SD mice were removed immediately after decapitating, and washed with normal saline followed by being promptly put into a −20° C. refrigerator to freeze for 20 min. Frozen brains were collected and subjected to coronal sections, each 2 mm of thickness, by a blade. Then the coronal sections were subjected to dark dyeing in a 2 wt. % of TTC solution for 20 min and fixing in a 4 wt. % of polyformaldehyde solution for 6 h followed by photographing. Then, Photoshop software was used to define area and calculate, and a formula was represented as a percentage of cerebral ischemic area=a total area of white area/a total area of ischemic hemisphere×100%.
Drug preparation and experimental grouping: Edaravone was used as a positive control drug, and an Edaravone injection was 30 mg/20 mL. A single dosage for each of the male SD mice was 0.4 mL/100 g, that is, 6 mg/kg. The cyclic dinucleotide metal compounds prepared in Examples 1-5 were prepared into […] injection drugs with the normal saline. Each of the male SD mice was subjected to caudal vein injection with 0.4 mL/100 g dosage of drugs, that is, 5 mg/kg. The male SD mice were divided into 8 groups (10 mice in each group). […]

[1] = system: mouse colorectal cancer cell line CT26
Protocol: Experimental animals: BALB/c ordinary mice, male, weighing 20-22 grams, 7-8 weeks old, at SPF level, purchased from Shanghai SLAC Laboratory Animal Co. Ltd.
Tumour cell line herein was the mouse colorectal cancer cell line CT26 purchased from Chinese Academy of Sciences Cell Bank.
Establishment and intervention of tumor model mice: cells were subjected to culture and subculture, collected in the logarithmic phase and prepared as 1.0×10^7/mL of cell suspension. 0.2 mL of the cell suspension was injected armpits of forelegs of the mice (with a cell number of 2.0×10^6), and tumor transplantation was successful in about 7 days. The mice were randomly divided into 5 groups (10 mice in each group). […] The mice were subjected to administration by intraperitoneal injection with the volume of 200 μL per mice once every 2 days for 20 days. After 20 days, the mice were weighed and their blood was collected. Then the mice were killed, and the tumor were weighed. The formula of inhibitory rate of tumor was represented as inhibitory rate of tumor=[1-average tumor weight of experimental group/average tumor weight of the negative control group]×100%.

[2] = oxaliplatin 5 mg/kg alone or + 10 mg/kg compound, intraperitoneal once every 2 days, 20 days
[3] = peripheral blood after 20 days administration
[4] = serum after 20 days administration

Compound: CC1=NN(c2ccccc2)C(=O)C1 [Edaravone, reference compound]
- Average value of percentage of cerebral ischemic area (IRI mice (male SD mice)): 28.97%

Compound: O=C1[O][Pt]2([NH][C@@H]3CCCC[C@H]3[NH]2)[O]C1=O [oxaliplatin]
- Inhibitory rate (of tumor) ([1]; CT26, oxaliplatin 5 mg/kg alone or + 10 mg/kg compound, 20 days): 78%
- Survival rate [1, 2]: 50%
- Weight loss [1, 2]: 40%
- Hemoglobin [1, 3]: 88 ± 9 g/L
- Platelets [1, 3]: 368 ± 56 × 10^3/μL
- Red blood cells [1, 3]: 4.51 ± 0.65 × 10^6/μL
- White blood cells [1, 3]: 3.87 ± 0.08 × 10^3/μL
- ALT [1, 4]: 118.25 ± 7.84 U/L
- Creatinine [1, 4]: 80.33 ± 4.65 µmol/L
